Data: US10174038B2, “Compounds and methods for antiviral treatment” (Gilead Sciences, Inc., priority 2012, dated 2019)
Like-named read-outs stand apart in the source and are kept apart here.

Test system: RSV strain A2
Test: RSV antiviral activity, in vitro cytoprotection assay in Hep2 cells
Format: cell-based, Respiratory Syncytial Virus (RSV)
Conditions: human respiratory syncytial virus
Experimental: Antiviral activity against RSV was determined using an in vitro cytoprotection assay in Hep2 cells. […] The method used was similar to methods previously described in published literature (Chapman et al., Antimicrob Agents Chemother. 2007, 51(9):3346-53.)
Hep2 cells were obtained from ATCC (Manassas, Va.) and maintained in MEM media supplemented with 10% fetal bovine serum and penicillin/streptomycin. Cells were passaged twice a week and kept at subconfluent stage. Commercial stock of RSV strain A2 (Advanced Biotechnologies, Columbia, Md.) was titered before compound testing to determine the appropriate dilution of the virus stock that generated desirable cytopathic effect in Hep2 cells.
For antiviral tests, Hep2 cells were seeded into 96-well plates 24 hours before the assay at a density of 3,000 cells/well. On a separate 96 well plate, compounds to be tested were serially diluted in cell culture media. Eight concentrations in 3-fold serial dilution increments were prepared for each tested compound and 100 uL/well of each dilution was transferred in duplicate onto plates with seeded Hep2 cells. Subsequently, appropriate dilution of virus stock previously determined by titration was prepared in cell culture media and 100 uL/well was added to test plates containing cells and serially diluted compounds. Each plate included three wells of infected untreated cells and three wells of uninfected cells that served as 0% and 100% virus inhibition control, respectively. Following the infection with RSV, testing plates were incubated for 4 days in a tissue culture incubator. After the incubation, RSV-induced cytopathic effect was determined using a Cell TiterGlo reagent (Promega, Madison, Wis.) followed by a luminescence read-out. The percentage inhibition was calculated for each tested concentration relative to the 0% and 100% inhibition controls and the EC50 value for each compound was determined by non-linear regression as a concentration inhibiting the RSV-induced cytopathic effect by 50%. Ribavirin (purchased from Sigma, St. Louis, Mo.) was used as a positive control for antiviral activity.
Compounds were also tested for antiviral activity against RSV in Hep2 cells using a 384 well format. Compounds were diluted in DMSO using a 10-step serial dilution in 3-fold increments via automation in 4 adjacent replicates each. Eight compounds were tested per dilution plate. 0.4 uL of diluted compounds were then stamped via Biomek into 384-well plates (Nunc 142761 or 164730 w/lid 264616) containing 20 μL of media (Mediatech Inc. MEM supplemented with Glutamine, 10% FBS and Pen/Strep). DMSO and a suitable positive control compound, such as 80 μM GS-329467 or 10 μM 427346 was used for the 100% and 0% cell killing controls, respectively.
Hep2 cells (1.0×10^5 cells/ml) were prepared as above in batch to at least 40 mls excess of the number of sample plates (8 mls cell mix per plate) and infected with vendor supplied (ABI) RSV strain A2 to arrive at an MOI of 1:1000 (virus:cell #) or 1:3000 (vol virus:cell vol). Immediately after addition of virus, the RSV infected Hep2 cell suspension was added to each stamped 384-well plate at 20 μl per well using a uFlow dispenser, giving a final volume of 40 μL/well, each with 2000 infected cells. The plates were then incubated for 5 days at 37° C. and 5% CO2. Following incubation, the plates were equilibrated to room temperature in a biosafety cabinet hood for 1.5 hrs and 40 μL of Cell-Titer Glo viability reagent (Promega) was added to each well via uFlow. Following a 10-20 minute incubation, the plates were read using an EnVision or Victor Luminescence plate reader (Perkin-Elmer). The data was then uploaded and analyzed on the Bioinformatics portal under the RSV Cell Infectivity and 8-plate EC50-Hep2-384 or 8-plate EC50-Hep2-Envision protocols. […]

[1] = HEp-2, 0.5 μM compound, RSV-induced cytopathic effect in Hep2 cells, % inhibition calculated from fitted 4-parameter dose response curve, normalized to 0% and 100%, read-out: Percent inhibition at 0.5 μM

Row | SMILES | inhibition at 0.5 µM [1] [%] | inhibition at 0.5 µM (HEp-2, read-out: Percent inhibition at 0.5 μM) [%]
1 | CC1CN(c2cc(N3CCOCC3)n3nc([C@@H]4CCCCN4C(=O)c4cc(Cl)ccc4NS(C)(=O)=O)cc3n2)C1 [Compound 1] | 95 | 
2 | Cc1cn2nc([C@@H]3CCCCN3C(=O)c3cc(Cl)ccc3NS(C)(=O)=O)cc2nc1N[C@@H](C)CO [Compound 2] | 97 | 
3 | Cc1ccc(C(=O)N2CCCC[C@H]2c2cc3nc(N4CC[C@H](N)C4)c(C)cn3n2)c(C)c1 [Compound 4] | 100 | 
4 | Cc1cn2nc([C@@H]3CCCCN3C(=O)c3ccccc3)cc2nc1N1CC[C@H](N)C1 [Compound 5] | 100 | 
5 | Cc1cccnc1C(=O)N1CCCC[C@H]1c1cc2nc(N3CC[C@H](N)C3)c(C)cn2n1 [Compound 6] | 100 | 
6 | Cc1ccncc1C(=O)N1CCCC[C@H]1c1cc2nc(N3CC[C@H](N)C3)c(C)cn2n1 [Compound 7] | 100 | 
7 | COc1ccc(C)cc1C(=O)N1CCCC[C@H]1c1cc2nc(N3CC[C@H](N)C3)c(C)cn2n1 [Compound 8] | 100 | 
8 | Cc1cn2nc([C@@H]3CCCCN3C(=O)c3ccccc3OC(F)(F)F)cc2nc1N1CC[C@H](N)C1 [Compound 9] | 100 | 
9 | COc1ccc(Cl)cc1C(=O)N1CCCC[C@H]1c1cc2nc(N3CC[C@H](N)C3)c(C)cn2n1 [Compound 10] | 100 | 
10 | Cc1ccc(N2CCCS2(=O)=O)c(C(=O)N2CCCC[C@H]2c2cc3nc(N4CC[C@H](N)C4)c(C)cn3n2)c1 [Compound 11] | 100 | 
11 | Cc1cc(NS(C)(=O)=O)c(C(=O)N2CCCC[C@H]2c2cc3nc(N4CC[C@H](N)C4)c(C)cn3n2)s1 [Compound 12] | 100 | 
12 | CC(=O)Nc1sccc1C(=O)N1CCCC[C@H]1c1cc2nc(N3CC[C@H](N)C3)c(C)cn2n1 [Compound 13] | 98 | 
13 | Cc1cnc(N)c(C(=O)N2CCCC[C@H]2c2cc3nc(N4CC[C@H](N)C4)c(C)cn3n2)c1 [Compound 14] | 97 | 
14 | Cc1cn2nc([C@@H]3CCCCN3C(=O)c3n[nH]c4ccc(F)cc34)cc2nc1N1CC[C@H](N)C1 [Compound 15] | 92 | 
15 | Cc1cn2nc([C@@H]3CCCCN3C(=O)c3cccc(C)c3O)cc2nc1N1CC[C@H](N)C1 [Compound 16] | 100 | 
16 | Cc1cn2nc([C@@H]3CCCCN3C(=O)c3cc4ccccc4[nH]3)cc2nc1N1CC[C@H](N)C1 [Compound 17] | 96 | 
17 | Cc1cn2nc([C@@H]3CCCCN3C(=O)c3ncccc3Cl)cc2nc1N1CC[C@H](N)C1 [Compound 18] | 100 | 
18 | CS(=O)(=O)Nc1ccc(Cl)cc1C(=O)N1CCCC[C@H]1c1cc2nc(N3CCC3)cc(N3CCN[C@@H](CO)C3)n2n1 [Compound 19] | 100 | 
19 | CS(=O)(=O)Nc1ccc(Cl)cc1C(=O)N1CCCC[C@H]1c1cc2nc(N3CCC3)cc(NCCN)n2n1 [Compound 20] |  | 100
20 | Cc1cn2nc([C@@H]3CCCCN3C(=O)c3cc(Cl)ccc3NS(C)(=O)=O)cc2nc1N1CC[C@H](CN)C1 [Compound 21] | 100 | 
21 | Cc1cn2nc([C@@H]3CCCCN3C(=O)C(NS(C)(=O)=O)c3ccccc3Cl)cc2nc1N1C[C@@H](C#N)[C@@H](O)C1 (some centres unmarked) [Compound 22] | 100 | 
22 | Cc1cn2nc([C@@H]3CCCCN3C(=O)C(NS(C)(=O)=O)c3ccccc3Br)cc2nc1N1C[C@@H](C#N)[C@@H](O)C1 (some centres unmarked) [Compound 23] | 100 | 
23 | CNc1c(C)c(C)nc2cc([C@@H]3CCCCN3C(=O)c3cc(F)cc(Cl)c3NS(C)(=O)=O)nn12 [Compound 24] | 91 | 
24 | CNc1c(C)c(C)nc2cc([C@@H]3CCCCN3C(=O)c3cc(Cl)cc(C)c3NS(C)(=O)=O)nn12 [Compound 25] | 97 | 
25 | Cc1cc(C2CC2)nc2cc([C@@H]3CCCCN3C(=O)c3cc(Cl)cc(Cl)c3NS(C)(=O)=O)nn12 [Compound 26] | 97 | 
26 | Cc1cn2nc([C@@H]3CCCCN3C(=O)[C@](C)(NS(C)(=O)=O)c3ccccc3)cc2nc1N1CC[C@H](N)C1 [Compound 27] | 100 | 
